Experimental data published in patent publication US20250360152A1, “NUTRITIONAL COMPOSITION FOR PREVENTING BRONCHITIS” (MEGMILK SNOW BRAND Co., Ltd., priority 2022, published 2025).

Assays:
[1] = test system: onset of bronchitis in infants; experiment: Logistic regression: breast milk carbohydrate component concentrations vs onset of bronchitis in infants during first year of life (153 samples); format: in vivo, human; conditions: for Odds ratio: concentration in breast milk vs onset of infant bronchitis within one year, adjusted for sex, siblings, method of delivery, birth weight; for Regression coefficient / Relationship between concentration and the onset of bronchitis (in words): logistic regression; for Regression coefficient: concentration in breast milk vs onset of infant bronchitis
Protocol: Various carbohydrate components were measured for 153 breast milk samples, analyzing a relationship with a presence or absence of the onset of bronchitis in infants during the first year of life using a logistic regression.
(§1) Bean Stalk Snow Co., Ltd. Conducted a prospective cohort study (UMIN ID 000015494) from 2014 to 2019 for investigating the relationship between the breast milk components of Japanese and a health status of mothers and children in Japan. In the study, breast milk samples collected from 1,210 mothers and questionnaire results of investigating the health status of mothers and children were used in the study. In addition, 200 samples were randomly selected from the 1,210 samples. The breast milk collected between 1 and 2 months after childbirth was used as the breast milk samples for analysis. Parents filled out questionnaires investigating the health status of their infants six times in total, every two months for one year after birth, and the results were collected. From the questionnaire results, the results were compiled of whether or not the infants were diagnosed with the bronchitis by a doctor within one year after the childbirth. If a description of a presence or absence of the onset of bronchitis was unclear, they were excluded from the study.
(§2) As a result, in the questionnaires conducted six times in total in a year, for 153 samples, questionnaires were answered correctly about whether the infants had been diagnosed with the bronchitis, and the samples became subjects to be analyzed in the study. Of the 153 samples, 18 samples were from infants diagnosed with the bronchitis within one year of birth.
For the 153 breast milk samples, the relationship between the concentrations of N-acetylneuraminic acid, the oligosaccharide, the N-linked glycan, the O-linked glycan, the disialo N-linked glycan A, and the disialo N-linked glycan B and the onset of infant bronchitis was analyzed using the logistic regression. Sex of the infant, a presence or absence of siblings, the method of delivery (natural birth, cesarean section), and a birth weight were used as adjustment factors.

[2] = test system: onset of bronchitis in infants; experiment: Two-group comparison of breast milk concentrations (infants ever vs never contracted bronchitis) and Fisher's exact test at a cut-off concentration; format: in vivo, human; conditions: for Concentration in the breast milk that reduces the risk of contracting the bronchitis: cut-off of Fisher's exact test; for Concentration in breast milk consumed by infants who had never contracted bronchitis versus infants who had ever contracted bronchitis: two groups, FIG. 1-5
From the text: as §1, §2
The breast milk samples were divided into two groups, based on whether or not the infants had ever contracted the bronchitis, comparing the total N-acetylneuraminic acids concentrations in the breast milk. […] A distribution range of the total N-acetylneuraminic acids concentrations in the breast milk consumed by the infants who had never contracted the bronchitis was 181-977 mg/L, with a median of 395 mg/L (Table 2). The distribution of the total N-acetylneuraminic acids concentrations was, different from a normal distribution, a distribution spreading out its tail towards its higher end of concentrations. Such a distribution is seen in the distribution of heights and weights of the infants, and the 3rd to 97th percentile of the overall distribution is used as standards when creating growth curves for infants (Infant Physical Development Survey Report 2000). Based on this, the 3rd to 97th percentile was used as a standard range of the total N-acetylneuraminic acids concentrations in the breast milk. A minimum value of the total N-acetylneuraminic acid concentration in the breast milk consumed by the infants who had never contracted the bronchitis was 221 mg/L corresponding to the 3rd percentile of the distribution.

Neu5Acα2-6Galβ1-4GlcNAcβ1-2Manαl-3 (Neu5Acα2-6Galβ1-4GlcNAcβ1-2Manα1-6) Manβ1-4GlcNAcβ1-4GlcNAc [Disialo N-linked glycan A]
Odds ratio [1]: 0.15
Regression coefficient [1]: −1.918
Regression coefficient ([1]; listed as disialo N-linked glycan A): negative
Concentration in the breast milk that reduces the risk of contracting the bronchitis [2]: ≥ 0.313 µmol/L
Concentration in breast milk consumed by infants who had never contracted bronchitis versus infants who had ever contracted bronchitis [2]: significantly higher

CC(=O)N[C@H]1[C@H]([C@H](O)[C@H](O)CO)O[C@@](O[C@H]2[C@@H](O)[C@@H](CO)O[C@@H](O[C@H]3[C@H](O)[C@@H](O)C(O)O[C@@H]3CO)[C@@H]2O)(C(=O)O)C[C@@H]1O (some centres unmarked) [3′-SL, 3′-sialyllactose, reference compound]
Odds ratio [1]: 0.53
Relationship between concentration and the onset of bronchitis (in words) [1]: not observed
Regression coefficient [1]: −0.626

CC(=O)N[C@H]1[C@H]([C@H](O)[C@H](O)CO)OC(O)(C(=O)O)C[C@@H]1O (some centres unmarked) [Total N-acetylneuraminic acid, N-acetylneuraminic acid]
Odds ratio [1]: 0.098
Relationship between concentration and the onset of bronchitis (in words) [1]: statistically significant relationship
Regression coefficient [1]: −2.32
Concentration in the breast milk that reduces the risk of contracting the bronchitis [2]: ≥ 246 mg/L
Concentration in breast milk consumed by infants who had never contracted bronchitis versus infants who had ever contracted bronchitis [2]: significantly higher

Neu5Acα2-6Galβ1-4GlcNAcβ1-2Manα1-3 (Neu5Acα2-6Galβ1-4GlcNAcβ1-2Manα1-6) Manβ1-4GlcNAcβ1-4 (Fucα1-6) GlcNAc [Disialo N-linked glycan B]
Odds ratio [1]: 0.24
Regression coefficient [1]: −1.407
Regression coefficient ([1]; listed as disialo N-linked glycan B): negative
Concentration in the breast milk that reduces the risk of contracting the bronchitis [2]: ≥ 0.245 µmol/L
Concentration in breast milk consumed by infants who had never contracted bronchitis versus infants who had ever contracted bronchitis [2]: significantly higher

CC(=O)N[C@H]1[C@H]([C@H](O)[C@H](O)CO)O[C@@](OC[C@H]2O[C@@H](O[C@H]3[C@H](O)[C@@H](O)[C@H](O)O[C@@H]3CO)[C@H](O)[C@@H](O)[C@H]2O)(C(=O)O)C[C@@H]1O [6′-SL, 6′-sialyllactose]
Concentration in the breast milk that reduces the risk of contracting the bronchitis [2]: ≥ 135 mg/L
Concentration in breast milk consumed by infants who had never contracted bronchitis versus infants who had ever contracted bronchitis [2]: significantly higher
